Read-outs that look alike come from different tables or passages of the source. A value given as a limit tells only on which side of the number the result lay.

The subject of assay [1] is mushroom tyrosinase (mTYR). Nature of the assay: Mushroom tyrosinase inhibition assay. On the set-up: Tyrosinase inhibition (%): dose or concentration left out as unconfirmed. The assay is classed as biochemical, Agaricus bisporus. Particulars: for Tyrosinase inhibition (%): […] μM of compound; for Tyrosinase inhibition (%) / IC50: L-tyrosine substrate; for IC50: mushroom tyrosinase. Here is the method: The tyrosinase inhibitory activity assays on the synthesized DHIT derivatives 1a – 1 k was performed using mushroom tyrosinase (mTYR), as previously described with minor modification. […] The optical densities of dopachrome produced during incubation were measured using a microplate reader (VersaMax™, Molecular Devices, Sunnyvale, CA, USA) at 492 nm. […] All experiments were conducted in triplicate. To calculate the tyrosinase inhibitory activities, the following formula was used: % inhibition = [(1− (A/B)) × 100], where A is test sample optical density and B is the optical density of the non-treated control.
IC50 values were calculated by plotting linear regression curves of percentage inhibitions versus derivative concentrations. The negative control was obtained by adding dimethyl sulfoxide (DMSO) instead of a DHIT derivative.

Assay [2] addresses mushroom tyrosinase. On the set-up: method as in PMID 29521165. As to conditions: cited from earlier work.

Usually IC50 stands for the midpoint of a concentration-inhibition curve. Consider `COc1ccc(/C=c2\sc3n(c2=O)CCN=3)cc1OC` [Compound 1i, (Z)-2-(3,4-Dimethoxybenzylidene)-5,6-dihydroimidazo[2,1-b]thiazol-3(2H)-one], for which, in assay [1], the “Tyrosinase inhibition (%)” value was “low or no mTYR inhibitory activity” and the IC50 was above 100 µM.

With `COc1ccc(/C=c2\sc3n(c2=O)CCN=3)c(OC)c1` [Compound 1 h, (Z)-2-(2,4-Dimethoxybenzylidene)-5,6-dihydroimidazo[2,1-b]thiazol-3(2H)-one], the IC50 in assay [1] was above 100 µM.

With `O=c1/c(=C/c2ccc(O)cc2)sc2n1CCN=2` [Compound 1a, (Z)-2-(4-Hydroxybenzylidene)-5,6-dihydroimidazo[2,1-b]thiazol-3(2H)-one], in assay [1], the “mushroom tyrosinase inhibition compared with kojic acid” value is “inhibited mTYR more than kojic acid” and half-maximal inhibition (IC50) was put at 36.1 ± 3.9 µM. For the same molecule, the “fold stronger tyrosinase inhibitor than kojic acid” value in assay [1] (ratio of IC50 values) was 2.3 fold.

In the case of `COc1cc(/C=c2\sc3n(c2=O)CCN=3)cc(OC)c1O` [Compound 1j, (Z)-2-(4-Hydroxy-3,5-dimethoxybenzylidene)-5,6-dihydroimidazo[2,1-b]thiazol-3(2H)-one], in assay [1], the “Tyrosinase inhibition (%)” value is given as 24.43 ± 1.50% and the IC50 was above 100 µM.

For the molecule `[H]/N=C1/NC(=O)C(=Cc2ccc(OC)c(O)c2)S1` [MHY773, (Z)-5-(3-hydroxy-4-methoxybenzylidene)-2-iminothiazolidin-4-one], the IC50 in assay [2] (diphenolase) is 8.06 µM; in assay [2] (monophenolase) it was 2.87 µM.

In assay [1], `O=c1/c(=C/c2ccc(O)c(O)c2)sc2n1CCN=2` [Compound 1c, (Z)-2-(3,4-Dihydroxybenzylidene)-5,6-dihydroimidazo[2,1-b]thiazol-3(2H)-one] returned an IC50 above 100 µM.

In turn, `COc1cc(/C=c2\sc3n(c2=O)CCN=3)cc(OC)c1OC` [Compound 1 k, (Z)-2-(3,4,5-Trimethoxybenzylidene)-5,6-dihydroimidazo[2,1-b]thiazol-3(2H)-one] showed an IC50 in assay [1] above 100 µM.

Regarding `CCOc1cc(/C=c2\sc3n(c2=O)CCN=3)ccc1O` [Compound 1e, (Z)-2-(3-Ethoxy-4-hydroxybenzylidene)-5,6-dihydroimidazo[2,1-b]thiazol-3(2H)-one], in assay [1] ([…] µM), the “Tyrosinase inhibition (%)” value is 3.90 ± 2.65%. Moreover, the IC50 in assay [1] was above 100 µM.

On to `COc1cc(/C=c2\sc3n(c2=O)CCN=3)ccc1O` [Compound 1d, (Z)-2-(4-Hydroxy-3-methoxybenzylidene)-5,6-dihydroimidazo[2,1-b]thiazol-3(2H)-one], for which the “Tyrosinase inhibition (%)” value in assay [1] ([…] µM) is recorded as 7.83 ± 2.29%. For the same molecule, the IC50 in assay [1] is above 100 µM.

In turn, `COc1ccc(/C=c2\sc3n(c2=O)CCN=3)cc1` [Compound 1 g, (Z)-2-(4-Methoxybenzylidene)-5,6-dihydroimidazo[2,1-b]thiazol-3(2H)-one] had an IC50 in assay [1] above 100 µM.

Consider `O=c1cc(CO)occ1O` [kojic acid, reference compound], for which the “Tyrosinase inhibition (%)” value in assay [1] ([…] µM) is recorded as 30%; in assay [1] (listed as KA, […] µM), 30.26 ± 0.55%.

Source of the values: PMC8861568, “Identification of (Z)-2-benzylidene-dihydroimidazothiazolone derivatives as tyrosinase inhibitors: Anti-melanogenic effects and in silico studies” (Computational and Structural Biotechnology Journal, 2022).
